Patent US8580829B2 (Boehringer Ingelheim International GmbH, priority 2010, dated 2013)

Columns and labels:
[1] = tested on: synthesis of LTB4 in human whole blood; test: human whole blood LTB4 production inhibition assay; assay type: cell-based; settings: Homo sapiens, heparinized human whole blood, calcimycin 20 μM; read-out: hWB LTB4 IC50
Description: Compounds are additionally tested in a human whole blood assay to determine their ability to inhibit the synthesis of LTB4 in a cellular system. Compounds are combined with heparinized human whole blood and incubated for 15 minutes at 37° C. Calcimycin (20 μM final, prepared in phosphate-buffered saline, pH 7.4) is then added and the mixture is incubated for another 30 minutes at 37° C. The samples are centrifuged for 5 min at low speed (1500×g) and the plasma layer is removed. Plasma LTB4 concentrations are then measured using an antibody-based homogenous time-resolved fluorescence method (CisBio, Bedford, Mass.).

[2] = biological target: T1, recombinant human FLAP protein (Homo sapiens, UniProt P20292); test: FLAP binding assay (Scintillation Proximity Assay, displacement of [125I]L-691,831); settings: recombinant human FLAP membranes, [125I]L-691,831 probe; read-out: FLAP SPA IC50
T1 construct: made in house; host or cells: Sf9 insect cells (100,000 x g membrane fraction)
T1 sequence (P20292 1-161): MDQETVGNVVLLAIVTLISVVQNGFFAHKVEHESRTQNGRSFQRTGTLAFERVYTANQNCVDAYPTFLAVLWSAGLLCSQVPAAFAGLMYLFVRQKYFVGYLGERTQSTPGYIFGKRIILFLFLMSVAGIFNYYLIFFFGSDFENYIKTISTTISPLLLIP
Description: Cell pellets produced from sf9 insect cells expressing recombinant human FLAP protein are resuspended in buffer A [15 mM Tris-HCl (pH 7.5), 2 mM MgCl2, 0.3 mM EDTA, 1 mM PMSF]. The cells are lysed with a Dounce homogenizer and the material is centrifuged at 10,000×g for 10 minutes. The supernatant is then collected and centrifuged at 100,000×g for 60 minutes. To prepare membrane protein for an assay, an aliquot of the 100,000×g pellet is resuspended in 1 ml of buffer A, Dounce homogenized, and finally subjected to polytron mixing (30 seconds). Membrane protein (25 μl, 5 μg) is mixed with WGA SPA beads (Amersham) and stirred for 1 h.

Row | Compound | IC50 [1] [nM] | IC50 [2] [nM]
1 | COC(=O)c1cnc(-c2nc(C3(c4ccc(-c5cnc(N)nc5)cc4)CCC3)no2)cn1 [Example 1, 5-(3-{1-[4-(2-amino-pyrimidin-5-yl)-phenyl]-cyclobutyl}-1,2,4-oxadiazol-5-yl)-pyrazine-2-carboxylic acid methyl ester] | 330 | 8.4
2 | Cn1cc(-c2nc(C3(c4ccc(-c5cnc(N)nc5)cc4)CCC3)no2)ccc1=O [Example 3, 5-(3-{1-[4-(2-Amino-pyrimidin-5-yl)-phenyl]-cyclobutyl}-1,2,4-oxadiazol-5-yl)-1-methyl-1H-pyridin-2-one] | 350 | 5.6
3 | Nc1ncc(-c2ccc(C3(c4noc(-c5cccnc5N)n4)CCC3)cc2)cn1 [Example 4, 5-(4-{1-[5-(2-Amino-pyridin-3-yl)-1,2,4-oxadiazol-3-yl]-cyclobutyl}-phenyl)-pyrimidin-2-ylamine] | 720 | 4.6
4 | Nc1ncc(-c2ccc(C3(c4noc(C(=O)N5CCCC5)n4)CCC3)cc2)cn1 [Example 11, (3-{1-[4-(2-Amino-pyrimidin-5-yl)-phenyl]-cyclobutyl}-1,2,4-oxadiazol-5-yl)-pyrrolidin-1-yl-methanone] | 1300 | 120
5 | Nc1ncc(-c2ccc(C3(c4noc(N5CCCC5)n4)CCC3)cc2)cn1 [Example 12, 5-{4-[1-(5-Pyrrolidin-1-yl-1,2,4-oxadiazol-3-yl)-cyclobutyl]-phenyl}-pyrimidin-2-ylamine] | 470 | 8.3
6 | CCNC(=O)c1nc(C2(c3ccc(-c4cnc(N)nc4)cc3)CCC2)no1 [Example 13, 3-{1-[4-(2-Amino-pyrimidin-5-yl)-phenyl]-cyclobutyl}-1,2,4-oxadiazole-5-carboxylic acid ethylamide] | > 5000 | 170
7 | CN(C)C(=O)c1nc(C2(c3ccc(-c4cnc(N)nc4)cc3)CCC2)no1 [Example 14, 3-{1-[4-(2-Amino-pyrimidin-5-yl)-phenyl]-cyclobutyl}-1,2,4-oxadiazole-5-carboxylic acid dimethylamide] | > 5000 | 57
8 | NC(=O)c1ccc(-c2nc(C3(c4ccc(-c5cnc(N)nc5)cc4)CCC3)no2)cn1 [Example 17, 5-(3-{1-[4-(2-Amino-pyrimidin-5-yl)-phenyl]-cyclobutyl}-1,2,4-oxadiazol-5-yl)-pyridine-2-carboxylic acid amide] | 180 | 2.1
9 | Nc1ncc(-c2ccc(C3(c4noc(-c5cnc(N)nc5)n4)CCC3)cc2)cn1 [Example 18, 5-(4-{1-[5-(2-Amino-pyrimidine-5-yl)-1,2,4-oxadiazole-3-yl]-cyclobutyl}-phenyl)-pyrimidin-2-ylamine] | 300 | 2.9
10 | CCNc1nc(C2(c3ccc(-c4cnc(N)nc4)cc3)CCC2)no1 [Example 24, 5-{4-[1-(5-Ethylamino-1,2,4-oxadiazol-3-yl)-cyclobutyl]-phenyl}-pyrimidin-2-ylamine] | 460 | 11
11 | Nc1ncc(-c2ccc(C3(c4noc(N5CCCC5=O)n4)CCC3)cc2)cn1 [Example 26, 1-(3-{1-[4-(2-Amino-pyrimidin-5-yl)-phenyl]-cyclobutyl}-1,2,4-oxadiazol-5-yl)-pyrrolidin-2-one] | 1600 | 160
12 | CS(=O)(=O)Nc1nc(C2(c3ccc(-c4cnc(N)nc4)cc3)CCC2)no1 [Example 27, N-(3-{1-[4-(2-Amino-pyrimidin-5-yl)-phenyl]-cyclobutyl}-1,2,4-oxadiazol-5-yl)-methanesulfonamide] | > 5000 | 340

Second part, the compound after the results:

Row | IC50 [1] [nM] | IC50 [2] [nM] | Compound
13 | 100 | 2.2 | CCn1ncc(-c2nc(C3(c4ccc(-c5cnc(N)nc5)cc4)CCC3)no2)c1C [Example 2, 5-(4-{1-[5-(1-ethyl-5-methyl-1H-pyrazol-4-yl)-1,2,4-oxadiazol-3-yl]-cyclobutyl}-phenyl)-pyrimidin-2-ylamine]
14 | > 5000 | 2.4 | Cc1cc(-c2nc(C3(c4ccc(-c5cnc(N)nc5)cc4)CCC3)no2)[nH]n1 [Example 5, 5-(4-{1-[5-(5-Methyl-2H-pyrazol-3-yl)-1,2,4-oxadiazol-3-yl]-cyclobutyl}-phenyl)-pyrimdin-2-ylamine]
15 | 150 | 1.1 | Cc1n[nH]cc1-c1nc(C2(c3ccc(-c4cnc(N)nc4)cc3)CCC2)no1 [Example 6, 5-(4-{1-[5-(3-Methyl-1H-pyrazol-4-yl)-1,2,4-oxadiazol-3-yl]-cyclobutyl}-phenyl)-pyrimidin-2-ylamine]
16 | 50 | 2.4 | Cn1ncc(-c2nc(C3(c4ccc(-c5cnc(N)nc5)cc4)CCC3)no2)c1N [Example 7, 5-(4-{1-[5-(5-Amino-1-methyl-1H-pyrazol-4-yl)-1,2,4-oxadiazol-3-yl]-cyclobutyl}-phenyl)-pyrimidin-2-ylamine]
17 | 400 | 8.5 | Nc1ncc(-c2ccc(C3(c4noc(-c5cccnn5)n4)CCC3)cc2)cn1 [Example 8, 5-{4-[1-(5-Pyridazin-3-yl-1,2,4-oxadiazol-3-yl)-cyclobutyl]-phenyl}-pyrimidin-2-ylamine]
18 | 2000 | 7 | Nc1ncc(-c2ccc(C3(c4noc(-c5c[nH]c(=O)[nH]5)n4)CCC3)cc2)cn1 [Example 9, 4-(3-{1-[4-(2-Amino-pyrimidin-5-yl)-phenyl]-cyclobutyl}-1,2,4-oxadiazol-5-yl)-1,3-dihydro-imidazol-2-one]
19 | 290 | 2.1 | Cc1ncc(-c2nc(C3(c4ccc(-c5cnc(N)nc5)cc4)CCC3)no2)[nH]1 [Example 10, 5-(4-{1-[5-(2-Methyl-3H-imidazol-4-yl)-1,2,4-oxadiazol-3-yl]-cyclobutyl}-phenyl)-pyrimidin-2-ylamine]
20 | > 5000 | 3.3 | Nc1ncc(-c2ccc(C3(c4noc(-c5c[nH]c(=O)cn5)n4)CCC3)cc2)cn1 [Example 16, 5-(3-{1-[4-(2-Amino-pyrimidin-5-yl)-phenyl]-cyclobutyl}-1,2,4-oxadiazol-5-yl)-1H-pyrazin-2-one]
21 | 1400 | 11 | Nc1ncc(-c2ccc(C3(c4noc(-c5nccnc5N)n4)CCC3)cc2)cn1 [Example 19, 5-(4-{1-[5-(3-Amino-pyrazin-2-yl)-1,2,4-oxadiazol-3-yl]-cyclobutyl}-phenyl)-pyrimidin-2-ylamine]
22 | 63 | 1.9 | Nc1ccc(-c2nc(C3(c4ccc(-c5cnc(N)nc5)cc4)CCC3)no2)cn1 [Example 20, 5-(4-{1-[5-(6-Amino-pyridin-3-yl)-1,2,4-oxadiazol-3-yl]-cyclobutyl}-phenyl)-pyrimidin-2-ylamine]
23 | 160 | 3.1 | Cn1ccc(-c2nc(C3(c4ccc(-c5cnc(N)nc5)cc4)CCC3)no2)cc1=O [Example 21, 4-(3-{1-[4-(2-Amino-pyrimidin-5-yl)-phenyl]-cyclobutyl}-1,2,4-oxadiazol-5-yl)-1-methyl-1H-pyridin-2-one]
24 | 140 | 2.6 | Cc1cnc(-c2nc(C3(c4ccc(-c5cnc(N)nc5)cc4)CCC3)no2)cn1 [Example 22, 5-(4-{1-[5-(5-Methyl-pyrazin-2-yl)-1,2,4-oxadiazol-3-yl]-cyclobutyl}-phenyl)-pyrimidin-2-ylamine]
25 | 73 | 4.2 | Cn1cnc(-c2nc(C3(c4ccc(-c5cnc(N)nc5)cc4)CCC3)no2)c1 [Example 23]
